Reference: ChEMBL document CHEMBL1201862, “PubChem BioAssay data set” (2004)
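Values below derive from 48-hour exposures of cells grown in 96-well plates, with endpoints linearly interpolated between the two concentrations bracketing the appropriate inhibition level. The concentration for 50% growth inhibition is given as GI50.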 Active and inactive are the calls of the source. Cut-off read from the data, not from the text of the source: active = GI50 up to about 1.1 µM and inactive = higher.

How the values were obtained:
Assay in all cases: DTP human tumour cell line panel, 48 h
MOLT-4 = system: MOLT-4
HOP-62 = system: HOP-62
NCI-H23 = system: NCI-H23
MDA-N = system: MDA-N
MDA-MB-435 = system: MDA-MB-435
UACC-257 = system: UACC-257
SF-295 = system: SF-295
OVCAR-5 = system: OVCAR-5
SR = system: SR
M14 = system: M14
HCT-116 = system: HCT-116
COLO 205 = system: COLO 205
MDA-MB-231 = system: MDA-MB-231
SK-MEL-28 = system: SK-MEL-28
U-251 = system: U-251
ACHN = system: ACHN
SW-620 = system: SW-620
CCRF-CEM = system: CCRF-CEM
OVCAR-3 = system: OVCAR-3
RPMI-8226 = system: RPMI-8226
TK-10 = system: TK-10
RXF 393 = system: RXF 393
M19-MEL = system: M19-MEL
K562 = system: K562
NCI/ADR-RES = system: NCI/ADR-RES
Hs-578T = system: Hs-578T
SK-MEL-2 = system: SK-MEL-2
CAKI-1 = system: CAKI-1
EKVX = system: EKVX
786-0 = system: 786-0
NCI-H460 = system: NCI-H460
Malme-3M = system: Malme-3M
HCT-15 = system: HCT-15
KM-20L2 = system: KM-20L2
LOX IMVI = system: LOX IMVI
A549 = system: A549
BT-549 = system: BT-549
SNB-78 = system: SNB-78
SK-OV-3 = system: SK-OV-3
MCF7 = system: MCF7
HCC 2998 = system: HCC 2998
DMS-273 = system: DMS-273
A498 = system: A498
SF-268 = system: SF-268
SF-539 = system: SF-539
HT-29 = system: HT-29
IGROV-1 = system: IGROV-1
DU-145 = system: DU-145
SK-MEL-5 = system: SK-MEL-5
OVCAR-8 = system: OVCAR-8
UO-31 = system: UO-31
T47D = system: T47D
XF498 = system: XF498
NCI-H522 = system: NCI-H522
HOP-92 = system: HOP-92
DMS-114 = system: DMS-114
HL-60 = system: HL-60
SNB-75 = system: SNB-75
SNB-19 = system: SNB-19
KM12 = system: KM12
PC-3 = system: PC-3
OVCAR-4 = system: OVCAR-4
NCI-H226 = system: NCI-H226
SN12C = system: SN12C
DLD-1 = system: DLD-1
LXFL 529 = system: LXFL 529

Q: CN(C)CCCNc1c2ccccc2nc2cccc([N+](=O)[O-])c12 was tested. Which GI50 (MOLT-4) did it give?
A: The GI50 was 10 nM (active).

Q: What about the GI50 (HOP-62) of the same compound?
A: The GI50 was 1.1 nM (active).

Q: And the GI50 (NCI-H23)?
A: Its GI50 is < 1 nM (active).

Q: What about the GI50 (MDA-N) of the same compound?
A: The GI50 was 1.02 nM (active).

Q: What about the GI50 (MDA-MB-435) of the same compound?
A: Its GI50 is < 1 nM (active).

Q: What about the GI50 (UACC-257) of the same compound?
A: The GI50 was 2.75 nM (active).

Q: And the GI50 (SF-295)?
A: Its GI50 is 23.6 nM (active).

Q: What about the GI50 (OVCAR-5) of the same compound?
A: Its GI50 is 2.17 nM (active).

Q: What about the GI50 (SR) of the same compound?
A: Its GI50 is < 1 nM (active).

Q: And the GI50 (M14)?
A: The GI50 was < 1 nM (active).

Q: And the GI50 (HCT-116)?
A: The GI50 was 1.52 nM (active).

Q: What about the GI50 (COLO 205) of the same compound?
A: Its GI50 is < 1 nM (active).

Q: And the GI50 (MDA-MB-231)?
A: The GI50 was < 1 nM (active).

Q: And the GI50 (SK-MEL-28)?
A: The GI50 was 2.35 nM (active).

Q: And the GI50 (U-251)?
A: Its GI50 is 10.3 nM (active).

Q: What about the GI50 (ACHN) of the same compound?
A: The GI50 was < 1 nM (active).

Q: What about the GI50 (SW-620) of the same compound?
A: Its GI50 is < 1 nM (active).

Q: What about the GI50 (CCRF-CEM) of the same compound?
A: Its GI50 is 8.24 nM (active).

Q: What about the GI50 (OVCAR-3) of the same compound?
A: Its GI50 is 14.3 nM (active).

Q: What about the GI50 (RPMI-8226) of the same compound?
A: Its GI50 is < 1 nM (active).

Q: What about the GI50 (TK-10) of the same compound?
A: The GI50 was 2.15 nM (active).

Q: What about the GI50 (RXF 393) of the same compound?
A: The GI50 was 1.18 nM (active).

Q: What about the GI50 (M19-MEL) of the same compound?
A: The GI50 was 10 nM (active).

Q: What about the GI50 (K562) of the same compound?
A: The GI50 was < 1 nM (active).

Q: What about the GI50 (NCI/ADR-RES) of the same compound?
A: Its GI50 is 7.98 nM (active).

Q: And the GI50 (Hs-578T)?
A: Its GI50 is 2.88 nM (active).

Q: What about the GI50 (SK-MEL-2) of the same compound?
A: The GI50 was < 1 nM (active).

Q: And the GI50 (CAKI-1)?
A: The GI50 was 19.6 nM (active).

Q: What about the GI50 (EKVX) of the same compound?
A: Its GI50 is 1.85 nM (active).

Q: What about the GI50 (786-0) of the same compound?
A: Its GI50 is < 1 nM (active).

Q: What about the GI50 (NCI-H460) of the same compound?
A: The GI50 was < 1 nM (active).

Q: What about the GI50 (Malme-3M) of the same compound?
A: The GI50 was < 1 nM (active).

Q: What about the GI50 (HCT-15) of the same compound?
A: Its GI50 is less than 1 nM.

Q: What about the GI50 (KM-20L2) of the same compound?
A: Its GI50 is 10 nM (active).

Q: What about the GI50 (LOX IMVI) of the same compound?
A: The GI50 was 1.42 nM (active).

Q: And the GI50 (A549)?
A: The GI50 was < 1 nM (active).

Q: What about the GI50 (BT-549) of the same compound?
A: Its GI50 is 2.52 nM (active).

Q: What about the GI50 (SNB-78) of the same compound?
A: The GI50 was 11.7 nM (active).

Q: What about the GI50 (SK-OV-3) of the same compound?
A: The GI50 was 3.67 nM (active).

Q: And the GI50 (MCF7)?
A: Its GI50 is < 1 nM (active).

Q: And the GI50 (HCC 2998)?
A: Its GI50 is < 1 nM (active).

Q: What about the GI50 (DMS-273) of the same compound?
A: The GI50 was 10 nM (active).

Q: What about the GI50 (A498) of the same compound?
A: The GI50 was < 1 nM (active).

Q: What about the GI50 (SF-268) of the same compound?
A: The GI50 was 1.23 nM (active).

Q: And the GI50 (SF-539)?
A: The GI50 was 1.97 nM (active).

Q: What about the GI50 (HT-29) of the same compound?
A: The GI50 was < 1 nM (active).

Q: And the GI50 (IGROV-1)?
A: The GI50 was < 1 nM (active).

Q: And the GI50 (DU-145)?
A: Its GI50 is 2.57 nM (active).

Q: And the GI50 (SK-MEL-5)?
A: The GI50 was < 1 nM (active).

Q: What about the GI50 (OVCAR-8) of the same compound?
A: Its GI50 is 19.5 nM (active).

Q: And the GI50 (UO-31)?
A: Its GI50 is 13 nM (active).

Q: And the GI50 (T47D)?
A: Its GI50 is 15.8 nM (active).

Q: And the GI50 (XF498)?
A: The GI50 was 10 nM (active).

Q: What about the GI50 (NCI-H522) of the same compound?
A: Its GI50 is < 1 nM (active).

Q: What about the GI50 (HOP-92) of the same compound?
A: Its GI50 is < 1 nM (active).

Q: And the GI50 (DMS-114)?
A: Its GI50 is 13.2 nM (active).

Q: And the GI50 (HL-60)?
A: The GI50 was 3.62 nM (active).

Q: What about the GI50 (SNB-75) of the same compound?
A: Its GI50 is 2.04 nM (active).

Q: What about the GI50 (SNB-19) of the same compound?
A: The GI50 was 1.73 nM (active).

Q: And the GI50 (KM12)?
A: The GI50 was 1.17 nM (active).

Q: And the GI50 (PC-3)?
A: Its GI50 is < 1 nM (active).

Q: What about the GI50 (OVCAR-4) of the same compound?
A: The GI50 was < 1 nM (active).

Q: What about the GI50 (NCI-H226) of the same compound?
A: The GI50 was 4.8 nM (active).

Q: And the GI50 (SN12C)?
A: Its GI50 is 1.02 nM (active).

Q: For COc1cc(C2c3cc4c(cc3[C@@H](NCCN(C)C)C3COC(=O)[C@H]23)OCO4)cc(OC)c1O (some centres undefined), which GI50 (DLD-1) is on record?
A: Its GI50 is 1460 nM (inactive).

Q: And the GI50 (M14)?
A: Its GI50 is 255 nM (active).

Q: What about the GI50 (SK-MEL-28) of the same compound?
A: The GI50 was 309 nM (active).

Q: What about the GI50 (U-251) of the same compound?
A: Its GI50 is 68.7 nM (active).

Q: And the GI50 (SW-620)?
A: The GI50 was 296 nM (active).

Q: And the GI50 (OVCAR-3)?
A: Its GI50 is 1340 nM (inactive).

Q: And the GI50 (RPMI-8226)?
A: The GI50 was 290 nM (active).

Q: What about the GI50 (TK-10) of the same compound?
A: The GI50 was 1690 nM (inactive).

Q: What about the GI50 (M19-MEL) of the same compound?
A: Its GI50 is 910 nM (active).

Q: What about the GI50 (K562) of the same compound?
A: The GI50 was 407 nM (active).

Q: And the GI50 (NCI-H460)?
A: The GI50 was < 10 nM (active).

Q: And the GI50 (Malme-3M)?
A: The GI50 was 360 nM (active).

Q: And the GI50 (A549)?
A: The GI50 was 20.7 nM (active).

Q: And the GI50 (SF-539)?
A: The GI50 was 58.5 nM (active).

Q: And the GI50 (SK-MEL-5)?
A: Its GI50 is 133 nM (active).

Q: And the GI50 (UO-31)?
A: The GI50 was 284 nM (active).

Q: And the GI50 (XF498)?
A: Its GI50 is 200 nM (active).

Q: What about the GI50 (HOP-92) of the same compound?
A: Its GI50 is 30.3 nM (active).

Q: And the GI50 (LXFL 529)?
A: Its GI50 is 1820 nM (inactive).

Q: What about the GI50 (HL-60) of the same compound?
A: Its GI50 is 12.7 nM (active).

Q: And the GI50 (SNB-75)?
A: The GI50 was 130 nM (active).

Q: And the GI50 (SNB-19)?
A: Its GI50 is 598 nM (active).

Q: What about the GI50 (KM12) of the same compound?
A: Its GI50 is 931 nM (active).

Q: What about the GI50 (OVCAR-4) of the same compound?
A: Its GI50 is 3090 nM (inactive).

Q: And the GI50 (NCI-H226)?
A: Its GI50 is 15.6 nM (active).
